{
  "source": "ChEMBL document CHEMBL4813928",
  "about": "“Targeted Isolation of Asperheptatides from a Coral-Derived Fungus Using LC-MS/MS-Based Molecular Networking and Antitubercular Activities of Modified Cinnamate Derivatives” (2021)",
  "note": "Square brackets hold non-standard residues; d marks the D form. Peptide text beside a SMILES is read from it.",
  "data": [
    {"system": "Mycobacterium tuberculosis", "experiment": "Antitubercular activity against Mycobacterium tuberculosis H37Ra assessed as bacterial growth inhibition", "format": "functional", "units": {"MIC": "µM"}, "values": [
      {"smiles": "CC(C)[C@H]1NC(=O)[C@H](Cc2ccccc2)NC(=O)[C@@H](C(C)C)NC(=O)[C@@H](C)NC(=O)[C@H](COC(=O)/C=C/c2ccc(Cl)cc2)NC(=O)[C@@H](Cc2c[nH]c3ccccc23)NC(=O)[C@@H](COC(=O)/C=C/c2ccc(Cl)cc2)NC1=O", "MIC": 50},
      {"smiles": "CC(C)[C@H]1NC(=O)[C@H](Cc2ccccc2)NC(=O)[C@@H](C(C)C)NC(=O)[C@@H](C)NC(=O)[C@H](CO)NC(=O)[C@@H](Cc2c[nH]c3ccccc23)NC(=O)[C@@H](COC(=O)/C=C/c2ccc(N(C)C)cc2)NC1=O", "MIC": 50},
      {"smiles": "CC(C)[C@H]1NC(=O)CNC(=O)[C@H](CO)NC(=O)[C@@H](Cc2c[nH]c3ccccc23)NC(=O)[C@@H](CO)NC(=O)[C@@H](C(C)C)NC(=O)[C@H](Cc2ccccc2)NC1=O", "note": "(cyclo([dV][dS][dW]SG[dV]F))", "MIC": 100},
      {"smiles": "NNC(=O)c1ccncc1", "note": "[ISONIAZID]", "MIC": 0.0125},
      {"smiles": "COc1cc(/C=C/C(=O)OC[C@H]2NC(=O)[C@@H](C(C)C)NC(=O)[C@H](Cc3ccccc3)NC(=O)[C@@H](C(C)C)NC(=O)[C@@H](C)NC(=O)[C@H](CO)NC(=O)[C@@H](Cc3c[nH]c4ccccc34)NC2=O)ccc1OCc1ccccc1", "MIC": 50},
      {"smiles": "CC(C)[C@H]1NC(=O)[C@H](Cc2ccccc2)NC(=O)[C@@H](C(C)C)NC(=O)[C@@H](C)NC(=O)[C@H](COC(=O)/C=C/c2cccc(Cl)c2)NC(=O)[C@@H](Cc2c[nH]c3ccccc23)NC(=O)[C@@H](COC(=O)/C=C/c2cccc(Cl)c2)NC1=O", "MIC": 100},
      {"smiles": "COc1ccc(/C=C/C(=O)OC[C@H]2NC(=O)[C@@H](C(C)C)NC(=O)[C@H](Cc3ccccc3)NC(=O)[C@@H](C(C)C)NC(=O)[C@@H](C)NC(=O)[C@H](CO)NC(=O)[C@@H](Cc3c[nH]c4ccccc34)NC2=O)cc1", "MIC": 12.5},
      {"smiles": "CC(C)[C@H]1NC(=O)CNC(=O)[C@H](CO)NC(=O)[C@@H](Cc2c[nH]c3ccccc23)NC(=O)[C@@H](C)NC(=O)[C@@H](C(C)C)NC(=O)[C@H](Cc2ccccc2)NC1=O", "MIC": 100},
      {"smiles": "CC(C)[C@H]1NC(=O)[C@H](Cc2ccccc2)NC(=O)[C@@H](C(C)C)NC(=O)[C@@H](C)NC(=O)[C@H](COC(=O)/C=C/c2ccc(N(C)C)cc2)NC(=O)[C@@H](Cc2c[nH]c3ccccc23)NC(=O)[C@@H](COC(=O)/C=C/c2ccc(N(C)C)cc2)NC1=O", "MIC": 50},
      {"smiles": "CC(C)[C@H]1NC(=O)[C@H](Cc2ccccc2)NC(=O)[C@@H](C(C)C)NC(=O)[C@@H](C)NC(=O)[C@H](COC(=O)/C=C/c2ccc(F)cc2)NC(=O)[C@@H](Cc2c[nH]c3ccccc23)NC(=O)[C@@H](COC(=O)/C=C/c2ccc(F)cc2)NC1=O", "MIC": 50},
      {"smiles": "CC(C)[C@H]1NC(=O)[C@H](Cc2ccccc2)NC(=O)[C@@H](C(C)C)NC(=O)[C@@H](C)NC(=O)[C@H](CO)NC(=O)[C@@H](Cc2c[nH]c3ccccc23)NC(=O)[C@@H](CO)NC1=O", "note": "(cyclo([dV][dS][dW]S[dA][dV]F))", "MIC": "> 100"},
      {"smiles": "CC(C)[C@H]1NC(=O)[C@H](Cc2ccccc2)NC(=O)[C@@H](C(C)C)NC(=O)[C@@H](C)NC(=O)[C@H](C)NC(=O)[C@@H](Cc2c[nH]c3ccccc23)NC(=O)[C@@H](C)NC1=O", "note": "(cyclo([dV][dA][dW]A[dA][dV]F))", "MIC": 100},
      {"smiles": "Cc1ccccc1/C=C/C(=O)OC[C@@H]1NC(=O)[C@@H](Cc2c[nH]c3ccccc23)NC(=O)[C@@H](COC(=O)/C=C/c2ccccc2C)NC(=O)[C@@H](C(C)C)NC(=O)[C@H](Cc2ccccc2)NC(=O)[C@@H](C(C)C)NC(=O)[C@@H](C)NC1=O", "MIC": 12.5},
      {"smiles": "Cc1ccc(/C=C/C(=O)OC[C@@H]2NC(=O)[C@@H](Cc3c[nH]c4ccccc34)NC(=O)[C@@H](COC(=O)/C=C/c3ccc(C)cc3)NC(=O)[C@@H](C(C)C)NC(=O)[C@H](Cc3ccccc3)NC(=O)[C@@H](C(C)C)NC(=O)[C@@H](C)NC2=O)cc1", "MIC": 12.5},
      {"smiles": "CC(C)[C@H]1NC(=O)[C@H](Cc2ccccc2)NC(=O)[C@@H](C(C)C)NC(=O)[C@@H](C)NC(=O)[C@H](COC(=O)/C=C/c2ccc(F)c(F)c2)NC(=O)[C@@H](Cc2c[nH]c3ccccc23)NC(=O)[C@@H](COC(=O)/C=C/c2ccc(F)c(F)c2)NC1=O", "MIC": 12.5},
      {"smiles": "CC(C)[C@H]1NC(=O)CNC(=O)[C@H](C)NC(=O)[C@@H](Cc2c[nH]c3ccccc23)NC(=O)[C@@H](CO)NC(=O)[C@@H](C(C)C)NC(=O)[C@H](Cc2ccccc2)NC1=O", "MIC": 100},
      {"smiles": "CC(C)[C@H]1NC(=O)[C@H](Cc2ccccc2)NC(=O)[C@@H](C(C)C)NC(=O)[C@@H](C)NC(=O)[C@H](COC(=O)/C=C/c2ccccc2Cl)NC(=O)[C@@H](Cc2c[nH]c3ccccc23)NC(=O)[C@@H](COC(=O)/C=C/c2ccccc2Cl)NC1=O", "MIC": 50},
      {"smiles": "CC(C)[C@H]1NC(=O)[C@H](Cc2ccccc2)NC(=O)[C@@H](C(C)C)NC(=O)[C@@H](C)NC(=O)[C@H](COC(=O)/C=C/c2ccc(C(F)(F)F)cc2)NC(=O)[C@@H](Cc2c[nH]c3ccccc23)NC(=O)[C@@H](COC(=O)/C=C/c2ccc(C(F)(F)F)cc2)NC1=O", "MIC": 100},
      {"smiles": "CC(C)[C@H]1NC(=O)[C@H](Cc2ccccc2)NC(=O)[C@@H](C(C)C)NC(=O)[C@@H](C)NC(=O)[C@H](CO)NC(=O)[C@@H](Cc2c[nH]c3ccccc23)NC(=O)[C@@H](COC(=O)/C=C/c2ccccc2)NC1=O", "MIC": "> 100"},
      {"smiles": "COc1ccc(/C=C/C(=O)OC[C@@H]2NC(=O)[C@@H](Cc3c[nH]c4ccccc34)NC(=O)[C@@H](COC(=O)/C=C/c3ccc(OC)c(OC)c3)NC(=O)[C@@H](C(C)C)NC(=O)[C@H](Cc3ccccc3)NC(=O)[C@@H](C(C)C)NC(=O)[C@@H](C)NC2=O)cc1OC", "MIC": 100},
      {"smiles": "CO[C@H]1/C=C/O[C@@]2(C)Oc3c(C)c(O)c4c(O)c(c(/C=N/N5CCN(C)CC5)c(O)c4c3C2=O)NC(=O)/C(C)=C\\C=C\\[C@H](C)[C@H](O)[C@@H](C)[C@@H](O)[C@@H](C)[C@H](OC(C)=O)[C@@H]1C", "note": "[RIFAMPIN]", "MIC": 0.00625},
      {"smiles": "COc1ccc(/C=C/C(=O)OC[C@@H]2NC(=O)[C@@H](Cc3c[nH]c4ccccc34)NC(=O)[C@@H](COC(=O)/C=C/c3ccc(OC)cc3)NC(=O)[C@@H](C(C)C)NC(=O)[C@H](Cc3ccccc3)NC(=O)[C@@H](C(C)C)NC(=O)[C@@H](C)NC2=O)cc1", "MIC": 100},
      {"smiles": "COc1cc(/C=C/C(=O)OC[C@@H]2NC(=O)[C@@H](Cc3c[nH]c4ccccc34)NC(=O)[C@@H](COC(=O)/C=C/c3ccc(OCc4ccccc4)c(OC)c3)NC(=O)[C@@H](C(C)C)NC(=O)[C@H](Cc3ccccc3)NC(=O)[C@@H](C(C)C)NC(=O)[C@@H](C)NC2=O)ccc1OCc1ccccc1", "MIC": 100},
      {"smiles": "COc1cc(Br)c(/C=C/C(=O)OC[C@@H]2NC(=O)[C@@H](Cc3c[nH]c4ccccc34)NC(=O)[C@@H](COC(=O)/C=C/c3cc(OC)c(OC)cc3Br)NC(=O)[C@@H](C(C)C)NC(=O)[C@H](Cc3ccccc3)NC(=O)[C@@H](C(C)C)NC(=O)[C@@H](C)NC2=O)cc1OC", "MIC": 100},
      {"smiles": "CC(C)[C@H]1NC(=O)[C@H](Cc2ccccc2)NC(=O)[C@@H](C(C)C)NC(=O)[C@@H](C)NC(=O)[C@H](COC(=O)/C=C/c2ccccc2)NC(=O)[C@@H](Cc2c[nH]c3ccccc23)NC(=O)[C@@H](COC(=O)/C=C/c2ccccc2)NC1=O", "MIC": "> 100"},
      {"smiles": "COc1cc(Br)c(/C=C/C(=O)OC[C@H]2NC(=O)[C@@H](C(C)C)NC(=O)[C@H](Cc3ccccc3)NC(=O)[C@@H](C(C)C)NC(=O)[C@@H](C)NC(=O)[C@H](CO)NC(=O)[C@@H](Cc3c[nH]c4ccccc34)NC2=O)cc1OC", "MIC": 50}
    ]},
    {"system": "Mycobacterium tuberculosis", "experiment": "Antitubercular activity against Mycobacterium tuberculosis H37Ra assessed as bacterial growth inhibition relative to parent compound", "format": "functional", "values": [
      {"smiles": "COc1ccc(/C=C/C(=O)OC[C@H]2NC(=O)[C@@H](C(C)C)NC(=O)[C@H](Cc3ccccc3)NC(=O)[C@@H](C(C)C)NC(=O)[C@@H](C)NC(=O)[C@H](CO)NC(=O)[C@@H](Cc3c[nH]c4ccccc34)NC2=O)cc1", "fold change (FC)": 10},
      {"smiles": "Cc1ccccc1/C=C/C(=O)OC[C@@H]1NC(=O)[C@@H](Cc2c[nH]c3ccccc23)NC(=O)[C@@H](COC(=O)/C=C/c2ccccc2C)NC(=O)[C@@H](C(C)C)NC(=O)[C@H](Cc2ccccc2)NC(=O)[C@@H](C(C)C)NC(=O)[C@@H](C)NC1=O", "fold change (FC)": 10},
      {"smiles": "Cc1ccc(/C=C/C(=O)OC[C@@H]2NC(=O)[C@@H](Cc3c[nH]c4ccccc34)NC(=O)[C@@H](COC(=O)/C=C/c3ccc(C)cc3)NC(=O)[C@@H](C(C)C)NC(=O)[C@H](Cc3ccccc3)NC(=O)[C@@H](C(C)C)NC(=O)[C@@H](C)NC2=O)cc1", "fold change (FC)": 10},
      {"smiles": "CC(C)[C@H]1NC(=O)[C@H](Cc2ccccc2)NC(=O)[C@@H](C(C)C)NC(=O)[C@@H](C)NC(=O)[C@H](COC(=O)/C=C/c2ccc(F)c(F)c2)NC(=O)[C@@H](Cc2c[nH]c3ccccc23)NC(=O)[C@@H](COC(=O)/C=C/c2ccc(F)c(F)c2)NC1=O", "fold change (FC)": 10}
    ]}
  ]
}
